From publication PMC6009955, “Synthesis of new pyridothienopyrimidinone and pyridothienotriazolopyrimidine derivatives as pim-1 inhibitors” (Journal of Enzyme Inhibition and Medicinal Chemistry, 2017)
Read-outs that look alike come from different tables or passages of the source.

How the values were obtained:
pim-1 = conditions: cited from earlier work
pim-2 = conditions: cited from earlier work
[1] = target: T1, Human proto-oncogene serine/threonine-protein kinase pim-1 (PIM1) (Homo sapiens, UniProt P11309); assay: Pim-1 kinase inhibitory activity (PIM1 ELISA kit); type: biochemical; conditions: for inhibition at 25 µM: read-out: % Inhibition at 25µM; for IC50: tested at 0.2, 1, 5 and 25 µM
T1 construct: purchased MBS7573
Experimental: The kinase inhibitory activity of the synthesised compounds was determined using Human proto-oncogene serine/threonine-protein kinase pim-1 (PIM1) ELISA Kit (catalog #MBS7573). All the compounds were tested for their inhibitory activity against pim-1 kinase at 0.2, 1, 5 and 25 µM using Staurosporine as a reference standard.

[2] = system: human breast adenocarcinoma (MCF7); assay: In vitro cytotoxic activity, MTT method, MCF7; type: cell-based; conditions: MCF-7, MTT, 48 h incubation, means of three experiments
Experimental: Cell line cells were obtained from American Type Culture Collection (ATCC, Manassas, VA). The cell lines used in this study were human breast adenocarcinoma (MCF7) and human colon adenocarcinoma (HCT116). The cells were cultured using DMEM (Invitrogen/Life Technologies) supplemented with 10% FBS (Hyclone), 10 µg/mL insulin (Sigma) and 1% penicillin-streptomycin. All of the other chemicals and reagents were from Sigma or Invitrogen. […] The culture medium was removed to a centrifuge tube. The cell layer was rinsed with 0.25% (w/v) Trypsin 0.53 mM EDTA solution to remove all traces of serum which contains Trypsin inhibitor. Then, 2–3 ml of Trypsin EDTA solution was added and the cells were observed under an inverted microscope until the cell layer is dispersed (usually within 5–15 min.). A volume of 6 to 8 ml of complete growth medium was added and the cells were aspirated by gently pipetting. The cell suspension was transferred to the centrifuge tube with the culture medium and centrifuged at approximately 125 ×g for 5 to 10 min. The supernatant was discarded and the cells were suspended in fresh growth medium then incubated at 37 °C for 24 h. After treatment of the cells with the serial concentrations of the test compounds or the control Staurosporine in DMSO (at concentrations of 200, 100, 10, 1 and 0.1 µM), incubation was carried out for 48 h at 37 °C, then the plates were examined under the inverted microscope and proceeded for the MTT assay. The MTT method of monitoring in vitro cytotoxicity is well suited for use with multiwell plates. For best results, cells in the log phase of growth should be employed and final cell number should not exceed 10^6 cells/cm^2. Each test should include a blank containing complete medium without cells. Cell cultures were removed from the incubator into laminar flow hood. Each vial of MTT [M-5655] was reconstituted to be used with 3 ml of medium or balanced salt solution without phenol red and serum and the reconstituted MTT was added in an amount equal to 10% of the culture medium volume. Then the cultures were returned to the incubator for 2–4 h depending on the cell type and the maximum cell density. After the incubation period, the cultures were removed from incubator and the resulting formazan crystals were dissolved by adding an amount of MTT solvent (solubilisation solution) [M-8910] equal to the original culture medium volume. Gentle mixing in a gyratory shaker enhanced dissolution. Occasionally pipetting up and down [trituration] may be required to completely dissolve the MTT formazan crystals. The absorbance was measured at a wavelength of 450 nm using Bioline ELIZA reader. The background absorbance of the multiwell plates was measured at 690 nm and subtracted from the 450 nm measurement. The results are shown in Table 2 and graphically represented in Figure 5. […] The results in terms of IC50 in µM are given in Table 2 and represented graphically in Figure 5.

[3] = system: human colon adenocarcinoma (HCT116); assay: In vitro cytotoxic activity, MTT method, HCT116; type: cell-based; conditions: 48 h incubation, means of three experiments
Experimental: Cell line cells were obtained from American Type Culture Collection (ATCC, Manassas, VA). The cell lines used in this study were human breast adenocarcinoma (MCF7) and human colon adenocarcinoma (HCT116). The cells were cultured using DMEM (Invitrogen/Life Technologies) supplemented with 10% FBS (Hyclone), 10 µg/mL insulin (Sigma) and 1% penicillin-streptomycin. All of the other chemicals and reagents were from Sigma or Invitrogen. […] The culture medium was removed to a centrifuge tube. The cell layer was rinsed with 0.25% (w/v) Trypsin 0.53 mM EDTA solution to remove all traces of serum which contains Trypsin inhibitor. Then, 2–3 ml of Trypsin EDTA solution was added and the cells were observed under an inverted microscope until the cell layer is dispersed (usually within 5–15 min.). A volume of 6 to 8 ml of complete growth medium was added and the cells were aspirated by gently pipetting. The cell suspension was transferred to the centrifuge tube with the culture medium and centrifuged at approximately 125 ×g for 5 to 10 min. The supernatant was discarded and the cells were suspended in fresh growth medium then incubated at 37 °C for 24 h. After treatment of the cells with the serial concentrations of the test compounds or the control Staurosporine in DMSO (at concentrations of 200, 100, 10, 1 and 0.1 µM), incubation was carried out for 48 h at 37 °C, then the plates were examined under the inverted microscope and proceeded for the MTT assay. The MTT method of monitoring in vitro cytotoxicity is well suited for use with multiwell plates. For best results, cells in the log phase of growth should be employed and final cell number should not exceed 10^6 cells/cm^2. Each test should include a blank containing complete medium without cells. Cell cultures were removed from the incubator into laminar flow hood. Each vial of MTT [M-5655] was reconstituted to be used with 3 ml of medium or balanced salt solution without phenol red and serum and the reconstituted MTT was added in an amount equal to 10% of the culture medium volume. Then the cultures were returned to the incubator for 2–4 h depending on the cell type and the maximum cell density. After the incubation period, the cultures were removed from incubator and the resulting formazan crystals were dissolved by adding an amount of MTT solvent (solubilisation solution) [M-8910] equal to the original culture medium volume. Gentle mixing in a gyratory shaker enhanced dissolution. Occasionally pipetting up and down [trituration] may be required to completely dissolve the MTT formazan crystals. The absorbance was measured at a wavelength of 450 nm using Bioline ELIZA reader. The background absorbance of the multiwell plates was measured at 690 nm and subtracted from the 450 nm measurement. […]

[4] = previous work, 2-aryl-2,3-dihydro derivatives ref 9, read-out: IC50 pim-1 inhibition

T1 sequence (P11309 whole entry): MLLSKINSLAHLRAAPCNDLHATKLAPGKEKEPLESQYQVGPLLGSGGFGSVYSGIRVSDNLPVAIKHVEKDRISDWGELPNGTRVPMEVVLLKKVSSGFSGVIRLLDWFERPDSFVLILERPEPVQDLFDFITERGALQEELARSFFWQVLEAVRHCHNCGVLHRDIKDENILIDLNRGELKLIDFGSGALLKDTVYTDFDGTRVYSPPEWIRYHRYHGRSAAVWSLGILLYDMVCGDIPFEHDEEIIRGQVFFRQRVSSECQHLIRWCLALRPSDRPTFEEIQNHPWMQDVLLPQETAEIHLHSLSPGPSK

SMILES | melting point [°C] | inhibition at 25 µM ([1]; pim-1 kinase, 25 µM) [%] | IC50 ([1]; pim-1 kinase) [nM] | further results
O=C(O)c1ccc2c(c1)nc(Nc1cccc(Cl)c1)c1ccncc12 [CX-4595] |  |  |  | IC50 (pim-1; read-out: IC50 (pim-1)): 48 nM; IC50 (pim-2): 186 nM
Cc1nc2sc3c(c2c(C)c1Br)NC(c1ccc(OCc2ccccc2)cc1)NC3=O (centres unmarked) [Compound 3a, 2-(4-(Benzyloxy)phenyl)-8-bromo-7,9-dimethyl-2,3-dihydropyrido[3′,2′:4,5]thieno[3,2-d]pyrimidin-4(1H)-one] | 255 to 256 | 83 | 960 | 
Cc1nc2sc3c(c2c(C)c1Br)NC(c1ccc(Br)cc1)NC3=O (centres unmarked) [Compound 3b, 8-Bromo-2-(4-bromophenyl)-7,9-dimethyl-2,3-dihydropyrido[3′,2′:4,5]thieno[3,2-d]pyrimidin-4(1H)-one] | > 300 | 96 | 60 | IC50 ([2]; Homo sapiens, MCF7, 48 h): 1840 ± 120 nM; IC50 ([3]; Homo sapiens, HCT-116, 48 h): 2740 ± 150 nM
Cc1nc2sc3c(c2c(C)c1Br)NC(c1ccc(Cl)cc1)NC3=O (centres unmarked) [Compound 3c, 8-Bromo-2-(4-chlorophenyl)-7,9-dimethyl-2,3-dihydropyrido[3′,2′:4,5]thieno[3,2-d]pyrimidin-4(1H)-one] | > 300 | 92 | 140 | IC50 ([2]; Homo sapiens, MCF7, 48 h): < 500 nM; IC50 [2]: 390 ± 70 nM
Cc1nc2sc3c(c2c(C)c1Br)NC(c1ccc(O)cc1O)NC3=O (centres unmarked) [Compound 3d, 8-Bromo-2-(2,4-dihydroxyphenyl)-7,9-dimethyl-2,3-dihydropyrido[3′,2′:4,5]thieno[3,2-d]pyrimidin-4(1H)-one] | 290 to 291 | 81 | 1340 | 
Cc1nc2sc3c(c2c(C)c1Br)NC(c1ccc(O)c(O)c1)NC3=O (centres unmarked) [Compound 3e, 8-Bromo-2-(3,4-dihydroxyphenyl)-7,9-dimethyl-2,3-dihydropyrido[3′,2′:4,5]thieno[3,2-d]pyrimidin-4(1H)-one] |  | 93 | 60 | 
Cc1nc2sc3c(c2c(C)c1Br)NC(c1ccc(F)cc1)NC3=O (centres unmarked) [Compound 3f, 8-Bromo-2-(4-fluorophenyl)-7,9-dimethyl-2,3-dihydropyrido[3′,2′:4,5]thieno[3,2-d]pyrimidin-4(1H)-one] | > 300 | 89 | 1000 | 
COc1cc(C2NC(=O)c3sc4nc(C)c(Br)c(C)c4c3N2)ccc1O (centres unmarked) [Compound 3g, 8-Bromo-2-(4-hydroxy-3-methoxyphenyl)-7,9-dimethyl-2,3-dihydropyrido[3′,2′:4,5]thieno[3,2-d]pyrimidin-4(1H)-one] |  | 92 | 80 | IC50 ([2]; Homo sapiens, MCF7, 48 h): < 500 nM; IC50 [2]: 460 ± 90 nM
COc1ccc(C2NC(=O)c3sc4nc(C)c(Br)c(C)c4c3N2)cc1 (centres unmarked) [Compound 3h, 8-Bromo-2-(4-methoxyphenyl)-7,9-dimethyl-2,3-dihydropyrido[3′,2′:4,5]thieno[3,2-d]pyrimidin-4(1H)-one] | > 300 | 84 | 1170 | 
COc1cc(C2NC(=O)c3sc4nc(C)c(Br)c(C)c4c3N2)cc(OC)c1OC (centres unmarked) [Compound 3i, 8-Bromo-7,9-dimethyl-2-(3,4,5-trimethoxyphenyl)-2,3-dihydropyrido[3′,2′:4,5]thieno[3,2-d]pyrimidin-4(1H)-one] | > 300 | 81 | 930 | 
Cc1nc2sc3c(c2c(C)c1Br)NC(c1ccsc1)NC3=O (centres unmarked) [Compound 3j, 8-Bromo-7,9-dimethyl-2-(thiophen-3-yl)-2,3-dihydropyrido[3′,2′:4,5]thieno[3,2-d]pyrimidin-4(1H)-one] | 280 to 281 | 95 | 100 | IC50 ([2]; Homo sapiens, MCF7, 48 h): < 500 nM; IC50 [2]: 310 ± 20 nM; IC50 ([3]; Homo sapiens, HCT-116, 48 h): 4820 ± 210 nM
Cc1nc2sc3c(ncn4ncnc34)c2c(C)c1Br [Compound 6, 8-bromo-7,9-dimethylpyrido[3′,2′:4,5]thieno[2,3-e][1,2,4]triazolo[1,5-c]pyrimidine] | 277 to 278 | 81 | 1080 | 
Cc1nc2c3sc4nc(C)c(Br)c(C)c4c3ncn2n1 [Compound 7a, 8-Bromo-2,7,9-trimethylpyrido[3′,2′:4,5]thieno[2,3-e][1,2,4]triazolo[1,5-c]pyrimidine] |  | 76 | 1760 | 
Cc1nc2sc3c(ncn4nc(C(F)(F)F)nc34)c2c(C)c1Br [Compound 7b, 8-Bromo-7,9-dimethyl-2-(trifluoromethyl)pyrido[3′,2′:4,5]thieno[2,3-e][1,2,4]triazolo[1,5-c]pyrimidine] | 199 to 200 | 93 | 80 | IC50 ([2]; Homo sapiens, MCF7, 48 h): 4620 ± 140 nM; IC50 [3]: 650 ± 40 nM; IC50 ([3]; Homo sapiens, HCT-116, 48 h): < 1000 nM
CCOC(=O)Cc1nc2c3sc4nc(C)c(Br)c(C)c4c3ncn2n1 [Compound 8, ethyl 2-(8-bromo-7,9-dimethylpyrido[3′,2′:4,5]thieno[2,3-e][1,2,4]triazolo[1,5-c]pyrimidin-2-yl)acetate] | 198 to 199 | 95 | 100 | IC50 ([2]; Homo sapiens, MCF7, 48 h): < 500 nM; IC50 [2]: 410 ± 30 nM
Cc1nc2sc3c(=N)n(N=Cc4ccc(Br)cc4)cnc3c2c(C)c1Br [Compound 9a, 8-Bromo-N-(4-bromobenzylidene)-4-imino-7,9-dimethylpyrido[3′,2′:4,5]thieno[3,2-d]pyrimidin-3(4H)-amine] | > 300 | 88 | 520 | 
Cc1nc2sc3c(=N)n(N=Cc4ccccc4C(F)(F)F)cnc3c2c(C)c1Br [Compound 9b, 8-Bromo-4-imino-7,9-dimethyl-N-(2-(trifluoromethyl)benzylidene)pyrido[3′,2′:4,5]thieno[3,2-d]pyrimidin-3(4H)-amine] | > 300 | 89 | 220 | 
CN[C@@H]1C[C@H]2O[C@@](C)([C@@H]1OC)n1c3ccccc3c3c4c(c5c6ccccc6n2c5c31)C(=O)NC4 [Staurosporine, reference compound] |  |  |  | inhibition at 25 µM [1]: 94%
Cc1nc2sc3c(c2c(C)c1Br)NC(c1ccccc1Cl)NC3=O (centres unmarked) [Va] |  |  |  | IC50 (pim-1; [4]): 1180 nM
Cc1nc2sc3c(c2c(C)c1Br)NC(c1ccccc1O)NC3=O (centres unmarked) [Vb] |  |  |  | IC50 (pim-1; [4]): 1380 nM
Cc1nc2sc3c(c2c(C)c1Br)NC(c1ccccc1C(F)(F)F)NC3=O (centres unmarked) [Vc] |  |  |  | IC50 (pim-1; [4]): 1970 nM
